# Measurements as given in PubChem BioAssay (NCI).
#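 How tested: cells in 96-well plates exposed to compound for 48 hours at five concentrations. GI50 = concentration required for 50% inhibition of growth. TGI denotes the concentration required for complete inhibition of growth.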
# What was measured:
# Assay in all cases: inhibition of tumour cell growth, NCI panel, 48 h
# [1] = system: NCI-H460 lung
# [2] = system: K-562 leukemia
# [3] = system: A549 NSCLC
# [4] = system: EKVX NSCLC
# [5] = system: SW-620 colon
# [6] = system: HOP-92 NSCLC
# [7] = system: HS 578T breast
# [8] = system: MDA-MB-435
# [9] = system: OVCAR-4 ovarian
# [10] = system: HCC-2998 colon
# [11] = system: HOP-62 NSCLC
# [12] = system: RXF 393 renal
# [13] = system: ACHN renal
# [14] = system: NCI-H226 lung
# [15] = system: NCI-H522 lung
# [16] = system: HCT-15 colon
# [17] = system: OVCAR-3 ovarian
# [18] = system: UACC-257 melanoma
# [19] = system: NCI/ADR-RES ovarian
# [20] = system: SK-MEL-5 melanoma
# [21] = system: HCT-116 colon
# [22] = system: SNB-19 CNS
# [23] = system: SK-MEL-2 melanoma
# [24] = system: HT29 colon
# [25] = system: TK-10 renal
# [26] = system: LOX IMVI melanoma
# [27] = system: UO-31 renal
# [28] = system: SF-268 CNS
# [29] = system: IGROV1 ovarian
# [30] = system: SN12C renal
# [31] = system: A498 renal
# [32] = system: PC-3 prostate
# [33] = system: UACC-62 melanoma
# [34] = system: CCRF-CEM leukemia
# [35] = system: SK-MEL-28 melanoma
# [36] = system: RPMI-8226 leukemia
# [37] = system: MOLT-4 leukemia
# [38] = system: KM12 colon
# [39] = system: T-47D breast
# [40] = system: HL-60(TB) leukemia
# [41] = system: DU-145 prostate
# [42] = system: MCF7 breast
# [43] = system: NCI-H23 lung
# [44] = system: M14 melanoma
# [45] = system: SR leukemia
# [46] = system: 786-0 renal
# [47] = system: MALME-3M melanoma
# [48] = system: COLO 205 colon
# [49] = system: OVCAR-8 ovarian
# [50] = system: SNB-75 CNS
# [51] = system: OVCAR-5 ovarian
# [52] = system: MDA-MB-231 breast
# [53] = system: CAKI-1 renal
# [54] = system: SK-OV-3 ovarian
# [55] = system: U251 CNS
# [56] = system: SF-539 CNS
# [57] = system: SF-295 CNS
# [58] = system: BT-549 breast
compound,measurement,setting,value
CC(C)c1ccc(C(C)C(=O)N(CC2=C(C(C)c3ccccn3)c3ccccc3C2)C(C)C)cc1 (centres undefined),GI50,[1],2.62 µM
same,TGI,[1],8.35 µM
same,GI50,[2],2.39 µM
same,TGI,[2],15 µM
same,GI50,[3],3.85 µM
same,TGI,[3],> 100 µM
same,GI50,[4],1.72 µM
same,TGI,[4],8.31 µM
same,GI50,[5],3.18 µM
same,TGI,[5],15.8 µM
same,GI50,[6],1.98 µM
same,TGI,[6],12.8 µM
same,GI50,[7],1.84 µM
same,TGI,[7],13.6 µM
same,GI50,[8],3.73 µM
same,TGI,[8],55.6 µM
same,GI50,[9],3.07 µM
same,TGI,[9],86.7 µM
same,GI50,[10],4.52 µM
same,TGI,[10],39.1 µM
same,GI50,[11],5.26 µM
same,TGI,[11],> 100 µM
same,GI50,[12],2.38 µM
same,TGI,[12],14.3 µM
same,GI50,[13],3.22 µM
same,TGI,[13],> 100 µM
same,GI50,[14],2.68 µM
same,TGI,[14],21.7 µM
same,GI50,[15],2.59 µM
same,TGI,[15],15.7 µM
same,GI50,[16],2.84 µM
same,TGI,[16],18 µM
same,GI50,[17],3.26 µM
same,TGI,[17],11.6 µM
same,GI50,[18],3.43 µM
same,TGI,[18],38.3 µM
same,GI50,[19],2.67 µM
same,TGI,[19],19.2 µM
same,GI50,[20],1.97 µM
same,TGI,[20],4.62 µM
same,GI50,[21],1.94 µM
same,TGI,[21],8.02 µM
same,GI50,[22],6.66 µM
same,TGI,[22],> 100 µM
same,GI50,[23],2.55 µM
same,TGI,[23],7.15 µM
same,GI50,[24],1.6 µM
same,TGI,[24],3.77 µM
same,GI50,[25],4.81 µM
same,TGI,[25],> 100 µM
same,GI50,[26],2.54 µM
same,TGI,[26],8.23 µM
same,GI50,[27],1.53 µM
same,TGI,[27],7.29 µM
same,GI50,[28],4.62 µM
same,TGI,[28],> 100 µM
same,GI50,[29],2.77 µM
same,TGI,[29],31.3 µM
same,GI50,[30],1.88 µM
same,TGI,[30],3.51 µM
same,GI50,[31],0.801 µM
same,TGI,[31],5.59 µM
same,GI50,[32],2.66 µM
same,TGI,[32],> 100 µM
same,GI50,[33],8.79 µM
same,TGI,[33],37.6 µM
same,GI50,[34],3.25 µM
same,TGI,[34],22 µM
same,GI50,[35],10.8 µM
same,TGI,[35],66.2 µM
same,GI50,[36],2.32 µM
same,TGI,[36],7.52 µM
same,GI50,[37],2.46 µM
same,TGI,[37],13.1 µM
same,GI50,[38],3.36 µM
same,TGI,[38],12.2 µM
same,GI50,[39],2.94 µM
same,TGI,[39],> 100 µM
same,GI50,[40],2.15 µM
same,TGI,[40],5.44 µM
same,GI50,[41],5.29 µM
same,TGI,[41],18 µM
same,GI50,[42],3.23 µM
same,TGI,[42],11.4 µM
same,GI50,[43],3.35 µM
same,TGI,[43],53.6 µM
same,GI50,[44],3.93 µM
same,TGI,[44],15.6 µM
same,GI50,[45],2.67 µM
same,TGI,[45],9.58 µM
same,GI50,[46],3.14 µM
same,TGI,[46],11.5 µM
same,GI50,[47],2.83 µM
same,TGI,[47],8.57 µM
same,GI50,[48],1.75 µM
same,TGI,[48],3.23 µM
same,GI50,[49],3.82 µM
same,TGI,[49],> 100 µM
same,GI50,[50],3.17 µM
same,TGI,[50],> 100 µM
same,GI50,[51],5.33 µM
same,TGI,[51],95.9 µM
same,GI50,[52],3.47 µM
same,TGI,[52],22.7 µM
same,GI50,[53],1.76 µM
same,TGI,[53],6.73 µM
same,GI50,[54],6.63 µM
same,TGI,[54],> 100 µM
same,GI50,[55],2.85 µM
same,TGI,[55],13.6 µM
same,GI50,[56],5.62 µM
same,TGI,[56],26.7 µM
same,GI50,[57],2.3 µM
same,TGI,[57],7.65 µM
NC(N)=N/N=C/c1c(-c2ccc(Cl)c([N+](=O)[O-])c2)nc2sc(Cl)cn12,TGI,[1],8.08 µM
same,TGI,[2],> 100 µM
same,TGI,[3],7 µM
same,TGI,[58],3.48 µM
same,TGI,[7],5.54 µM
same,TGI,[10],> 100 µM
same,TGI,[11],> 100 µM
same,TGI,[14],> 100 µM
same,TGI,[15],3.07 µM
same,TGI,[16],> 100 µM
same,TGI,[18],3.79 µM
same,TGI,[19],> 100 µM
same,TGI,[20],15.9 µM
same,TGI,[21],> 100 µM
same,TGI,[24],6.85 µM
same,TGI,[25],58.5 µM
same,TGI,[27],3.47 µM
same,TGI,[29],3.18 µM
same,TGI,[30],4.88 µM
same,TGI,[34],> 100 µM
same,TGI,[36],> 100 µM
same,TGI,[40],> 100 µM
same,TGI,[42],6.3 µM
same,TGI,[45],> 100 µM
same,TGI,[46],> 100 µM
same,TGI,[47],5.58 µM
same,TGI,[49],4.08 µM
same,TGI,[51],> 100 µM
same,TGI,[55],> 100 µM
same,TGI,[56],4.98 µM
